The target of assay [1] is T1, ClpB NBD1-M dimer with P221C/M394C disulfide crosslink (Thermus thermophilus, UniProt Q9RA63, M394C/P221C).
T1 construct: NBD1-M (residues 141-534) covalent dimer linked by intermolecular disulfide between P221C of one subunit and M394C of the other; expressed in E. coli BL21 (DE3) RIL; one cross-linked and one free site; associates to tetramers with ATP
Kind of assay: stopped-flow FRET kinetics (koff/kon). The settings on record: read-out: KD "free". Type of assay: binding. The text has this:
stopped-flow FRET kinetics (koff/kon) on ClpB NBD1-M dimer with P221C/M394C disulfide crosslink

Assay [2] addresses T2, ClpB NBD1-M (Thermus thermophilus, UniProt Q9RA63, R322A/R323A).
T2 construct: expressed in E. coli BL21 (DE3) RIL; monomer/dimer equilibrium for the arginine mutants
Kind of assay: stopped-flow FRET kinetics (koff/kon). The format is binding. The text has this: (§1) stopped-flow FRET kinetics (koff/kon) on ClpB NBD1-M

Assay [3] addresses T3, ClpB NBD1-M (Thermus thermophilus, UniProt Q9RA63, R323A).
T3 construct: expressed in E. coli BL21 (DE3) RIL; monomer/dimer equilibrium for the arginine mutants
Kind of assay: stopped-flow FRET kinetics (koff/kon). The format is binding.
Excerpt: as §1

Assay [4] concerns the target T4, ClpB NBD1-M (Thermus thermophilus, UniProt Q9RA63, R322A).
T4 construct: expressed in E. coli BL21 (DE3) RIL; monomer/dimer equilibrium for the arginine mutants
Kind of assay: stopped-flow FRET kinetics (koff/kon). The format is binding.
Excerpt: as §1

In assay [5] the target is T5, ClpB NBD1-M dimer with P221C/M394C disulfide crosslink (Thermus thermophilus, UniProt Q9RA63, P221C/M394C, form not given).
T5 construct: NBD1-M (residues 141-534) covalent dimer linked by intermolecular disulfide between P221C of one subunit and M394C of the other; expressed in E. coli BL21 (DE3) RIL; one cross-linked and one free site; associates to tetramers with ATP
T5 sequence (Q9RA63 141-534 M394C): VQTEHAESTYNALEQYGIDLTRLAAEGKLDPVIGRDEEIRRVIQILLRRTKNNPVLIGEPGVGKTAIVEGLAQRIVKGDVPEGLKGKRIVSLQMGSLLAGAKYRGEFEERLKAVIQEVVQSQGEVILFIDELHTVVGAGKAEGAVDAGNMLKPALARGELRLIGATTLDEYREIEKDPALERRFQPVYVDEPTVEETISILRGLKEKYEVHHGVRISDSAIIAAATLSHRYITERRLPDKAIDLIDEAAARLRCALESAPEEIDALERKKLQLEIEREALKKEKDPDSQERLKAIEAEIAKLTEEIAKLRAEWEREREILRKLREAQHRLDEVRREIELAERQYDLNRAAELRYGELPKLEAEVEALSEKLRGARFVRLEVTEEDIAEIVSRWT
T5 sequence (Q9RA63 141-534 P221C): as the sequence (Q9RA63 141-534 M394C) above, with P81C, C254M counted along it
Kind of assay: fluorescence displacement titration against MANT-dADP. The format is binding. The settings on record: read-out: KD(ATP); 2 µM protein; 50 mM Tris/HCl pH 7.5, 50 mM KCl, 5 mM MgCl2, 2 mM EDTA, 25 °C; ATP-regenerating system (phosphoenolpyruvate, pyruvate kinase). The text has this:
(§2) fluorescence displacement titration against MANT-dADP on ClpB NBD1-M dimer with P221C/M394C disulfide crosslink

In assay [6] the target is T6, ClpB NBD1-M dimer with P221C/M394C disulfide crosslink (Thermus thermophilus, UniProt Q9RA63, P221C/M394C).
T6 construct: NBD1-M (residues 141-534) covalent dimer linked by intermolecular disulfide between P221C of one subunit and M394C of the other; expressed in E. coli BL21 (DE3) RIL; one cross-linked and one free site; associates to tetramers with ATP
T6 sequence (Q9RA63 141-534 M394C): as the sequence (Q9RA63 141-534 M394C) above
T6 sequence (Q9RA63 141-534 P221C): as the sequence (Q9RA63 141-534 M394C) above, with P81C, C254M counted along it
The description is as above. The format is binding. As to conditions: 2 µM protein, 50 mM Tris/HCl pH 7.5, 50 mM KCl, 5 mM MgCl2, 2 mM EDTA, 25 °C.
Excerpt: as §2

Assay [7] concerns the target T6, ClpB NBD1-M dimer with P221C/M394C disulfide crosslink. Kind of assay: coupled colorimetric ATPase assay, Hill equation fit. The settings on record: 5 µM protein (monomer units); 50 mM Tris/HCl pH 7.5, 100 mM KCl, 10 mM MgCl2, 2 mM EDTA, 25 °C; kcat per monomer. Type of assay: biochemical. The source says:
coupled colorimetric ATPase assay, Hill equation fit on ClpB NBD1-M dimer with P221C/M394C disulfide crosslink

In assay [8] the target is T2, ClpB NBD1-M. Kind of assay: fluorescence displacement titration against MANT-dADP. Type of assay: binding. As to conditions: 2 µM protein, 50 mM Tris/HCl pH 7.5, 50 mM KCl, 5 mM MgCl2, 2 mM EDTA, 25 °C. The source says:
(§3) fluorescence displacement titration against MANT-dADP on ClpB NBD1-M

For assay [9], the target named is T3, ClpB NBD1-M. Described as above. The format is binding. The settings on record: 2 µM protein, 50 mM Tris/HCl pH 7.5, 50 mM KCl, 5 mM MgCl2, 2 mM EDTA, 25 °C.
Excerpt: as §3

The target in assay [10] is T4, ClpB NBD1-M. Described as above. Type of assay: binding. As to conditions: 2 µM protein, 50 mM Tris/HCl pH 7.5, 50 mM KCl, 5 mM MgCl2, 2 mM EDTA, 25 °C.
Excerpt: as §3

[11] abbreviates: read-out: KD(ATP), ATP-regenerating system (phosphoenolpyruvate, pyruvate kinase).

Where two headings read alike, the source gives them in different places.

T3 sequence (Q9RA63 141-534 R323A): as the sequence (Q9RA63 141-534 M394C) above, with R183A, C254M counted along it
T2 sequence (Q9RA63 141-534 R322A/R323A): as the sequence (Q9RA63 141-534 M394C) above, with R182A, R183A, C254M counted along it
T4 sequence (Q9RA63 141-534 R322A): as the sequence (Q9RA63 141-534 M394C) above, with R182A, C254M counted along it
T1 sequence (Q9RA63 141-534 M394C): as the sequence (Q9RA63 141-534 M394C) above
T1 sequence (Q9RA63 141-534 P221C): as the sequence (Q9RA63 141-534 M394C) above, with P81C, C254M counted along it

With `CNc1ccccc1C(=O)O[C@H]1C[C@H](n2cnc3c(N)ncnc32)O[C@@H]1COP(=O)(O)OP(=O)(O)O` [MANT-dADP, 2′-deoxy-3′-O-(N′-methylanthraniloyl)adenosine-5′-O-diphosphate], the Kd in assay [1] worked out at 0.67 ± 0.04 µM; at ClpB NBD1-M [2], 6.9 ± 0.2 µM; on ClpB NBD1-M [3] it was 6.7 ± 0.2 µM; on ClpB NBD1-M [4], 8.3 ± 0.4 µM.
For the compound `Nc1ncnc2c1ncn2[C@@H]1O[C@H](COP(=O)(O)OP(=O)(O)OP(=O)(O)O)[C@@H](O)[C@H]1O` [ATP], the Kd in [5] worked out at 438 ± 17 µM; in assay [6] (setting [11]) it was 96 ± 11 µM; at ClpB NBD1-M [8] (setting [11]), 2050 ± 180 µM; on ClpB NBD1-M [9] (setting [11]) it was 1040 ± 120 µM; at ClpB NBD1-M [10] (setting [11]) it was 1670 ± 160 µM. Besides, the Km in assay [7] turned out to be 162 ± 4 µM.
Turning to `Nc1ncnc2c1ncn2[C@@H]1O[C@H](COP(=O)(O)OP(=O)(O)O)[C@@H](O)[C@H]1O` [ADP], the Kd in [6] (read-out: KD(ADP)) was 1.3 ± 0.1 µM; at ClpB NBD1-M [8] (read-out: KD(ADP)) it was 9.3 ± 0.7 µM; on ClpB NBD1-M [9] (read-out: KD(ADP)), 10.2 ± 0.6 µM; at ClpB NBD1-M [10] (read-out: KD(ADP)) it was 10.7 ± 0.6 µM.

The record behind these values is PMC4239642, “trans-Acting Arginine Residues in the AAA+ Chaperone ClpB Allosterically Regulate the Activity through Inter- and Intradomain Communication” (The Journal of Biological Chemistry, 2014).
